pIC50: −log10 of the molar value.
Columns and labels:
[1] = target: T1, 11β-HSD1 in primary human aortic smooth muscle cells (AoSMC) (Homo sapiens, UniProt P28845); experiment: Human Aortic Smooth Muscle Cell Assay (cortisone to cortisol conversion); format: cell-based; settings: hTNFα induced, cortisol by time resolved immunoassay
T1 construct: containing 12 ng/mL hTNFα to induce expression of 11β-HSD1; endogenous in cells; host or cells: primary human aortic smooth muscle cells (AoSMC), induced with hTNFα
Method: Human Aortic Smooth Muscle Cell Assay
Primary human aortic smooth muscle cells (AoSMC) are cultured in 5% FBS growth medium to a passage number of 6, then pelleted by centrifugation and resuspended at a density of 9×10^4 cells/mL in 0.5% FBS assay medium containing 12 ng/mL hTNFα to induce expression of 11β-HSD1. Cells are seeded into 96-well tissue culture assay plates at 100 μL/well (9×10^3 cells/well) and incubated for 48 hours at 37° C., 5% CO2. Following induction, cells are incubated for 4 hours at 37° C., 5% CO2 in assay medium containing test compounds then treated with 10 μL/well of 10 μM cortisone solubilized in assay medium, and incubated for 16 hours at 37° C., 5% CO2. Medium from each well is transferred to a plate for subsequent analysis of cortisol using a competitive fluorescence resonance time resolved immunoassay. […] Higher levels of free cortisol result in diminishing energy transfer from the Europium-IgG to the APC-cortisol complex resulting in less APC fluorescence. Fluorescent intensities for Europium and APC are measured using a LJL Analyst AD. Europium and APC […] is measured using 360 nm excitation and 615 nm and 650 nm emission filters respectively. […] Fluorescent intensities measured for APC are modified by dividing by the Eu fluorescence (APC/Eu). […]

[2] = tested on: cortisone to cortisol conversion in male C57BL/6 mice; experiment: Acute In Vivo Cortisone Conversion Assay; settings: oral dose of 10 mg/kg, cortisone challenge 30 mg/kg s.c. after 16 hours, serum cortisol
Method: Acute In Vivo Cortisone Conversion Assay
In general, compounds are dosed orally into mice, the mice are challenged with a subcutaneous injection of cortisone at a set timepoint after compound injection, and the blood of each animal is collected some time later. Separated serum is then isolated and analyzed for levels of cortisone and cortisol by LC-MS/MS, followed by calculation of mean cortisol and percent inhibition of each dosing group. Specifically, male C57BL/6 mice are obtained from Harlan Sprague Dawley at average weight of 25 grams. Exact weights are taken upon arrival and the mice randomized into groups of similar weights. Compounds are prepared in 1% w-w HEC, 0.25% w-w polysorbate 80, 0.05% w-w Dow Corning antifoam #1510-US at various doses based on assumed average weight of 25 grams. Compounds are dosed orally, 200 μl per animal, followed by a subcutaneous dose, 200 μl per animal, of 30 mg/kg cortisone at 1 to 24 hours post compound dose. At 10 minutes post cortisone challenge, each animal is euthanized for 1 minute in a CO2 chamber, followed by blood collection via cardiac puncture into serum separator tubes. Once fully clotted, tubes are spun at 2500×g, 4° C. for 15 minutes, the serum transferred to wells of 96-well plates (Corning Inc, Costar #4410, cluster tubes, 1.2 ml, polypropylene), and the plates are frozen at −20° C. until analysis by LC-MS/MS. […]

[3] = target: recombinant human 11β-HSD type 1 enzyme (Homo sapiens, UniProt P28845); experiment: 11-β-HSD Type 1 Enzyme Assay (NADPH fluorescence); format: biochemical; settings: three hour incubation at room temperature, read-out: Human 11-βHSD1 IC50
Method: 11-β-HSD Type 1 Enzyme Assay
Human 11-β-HSD type 1 activity is measured by assaying NADPH production by fluorescence assay. Solid compounds are dissolved in DMSO to a concentration of 10 mM. Twenty microliters of each are then transferred to a column of a 96-well polypropylene Nunc plate where they are further diluted 50-fold followed by subsequent two-fold titration, ten times across the plate with additional DMSO using a Tecan Genesis 200 automated system. Plates are then transferred to a Tecan Freedom 200 system with an attached Tecan Temo 96-well head and an Ultra 384 plate reader. Reagents are supplied in 96-well polypropylene Nunc plates and are dispensed individually into black 96-well Molecular Devices High Efficiency assay plates (40 μL/well capacity) in the following fashion: 9 μL/well of substrate (2.22 mM NADP, 55.5 μM Cortisol, 10 mM Tris, 0.25% Prionex, 0.1% Triton X100), 3 μL/well of water to compound wells or 3 μL to control and standard wells, 6 μL/well recombinant human 11β-HSD type 1 enzyme, 2 μL/well of compound dilutions. […] Plates are then shaken once more for 15 seconds then placed into an Ultra 384 microplate reader (355EX/460EM) for detection of NADPH fluorescence.

T1 sequence (P28845 whole entry): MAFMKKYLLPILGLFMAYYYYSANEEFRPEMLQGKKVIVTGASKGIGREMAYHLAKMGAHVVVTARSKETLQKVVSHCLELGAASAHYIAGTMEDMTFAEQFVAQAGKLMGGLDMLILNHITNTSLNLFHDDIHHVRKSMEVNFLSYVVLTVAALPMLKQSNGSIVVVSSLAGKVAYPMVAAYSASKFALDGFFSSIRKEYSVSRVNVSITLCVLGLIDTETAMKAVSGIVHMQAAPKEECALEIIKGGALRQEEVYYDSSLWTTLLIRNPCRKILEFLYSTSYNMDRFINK
Chain of recombinant human 11β-HSD type 1 enzyme (P28845 whole entry): as above

Structure (SMILES)	pIC50 [1]	% Inhibition after 16 hours (dose of 10 (mg/kg)) [2]	pIC50 [3]
O=C(c1ccc(-c2cc(Cl)c(C[C@@H]3CCN(N4CCCCC4)C3=O)c(Cl)c2)cc1)N1CCC(C(F)(F)F)CC1 [Example 1, (R)-3-[3,5-Dichloro-4′-(4-trifluoromethyl-piperidine-1-carbonyl)-biphenyl-4-ylmethyl]-1-piperidin-1-yl-pyrrolidin-2-one]	7.77	78%	
O=C(c1ccc(-c2cc(Cl)c(C[C@@H]3CCN(N4CCCCC4)C3=O)c(Cl)c2)cc1)N1CCC(O)CC1 [Example 2, (R)-3-[3,5-Dichloro-4′-(4-hydroxy-piperidine-1-carbonyl)-biphenyl-4-ylmethyl]-1-piperidin-1-yl-pyrrolidin-2-one]	7.98		6.45

Source: US8148534B2, “Inhibitors of 11-beta-hydroxysteroid dehydrogenase 1” (Eli Lilly and Company, priority 2006, dated 2012)
